Measured values taken from US9408853B2, “Iridium/rhodium anti-cancer compounds” (University of Warwick, priority 2010, dated 2016).

Test: Kinetics of hydrolysis followed by 1H NMR
Format: physicochemical
Conditions: for k (hydrolysis): 0.2 mM, 5% MeOD-d4/95% D2O, pH* 3
Procedure: Kinetics for Hydrolysis. Although complexes ZL01-ZL04, ZL07, ZL38 and ZL43 hydrolyzed too rapidly to monitor by ^1H NMR, The kinetics of hydrolysis for complexes ZL25, ZL33, ZL37 and ZL54 were followed by ^1H NMR at different temperatures. For this, solutions of the complexes with a final concentration of 0.2 mM in 5% MeOD-d4/95% D2O (v/v) were prepared by dissolution of the complexes in MeOD-d4 followed by rapid dilution using D2O with a pH* of about 3 (acidified with HClO4), so that the aqua ligand was not deprotonated. ^1H NMR spectra were taken after various time intervals. The rates of hydrolysis were determined by fitting plots of concentrations (determined from ^1H NMR peak integrals) versus time to a pseudo first-order equation using ORIGIN version 7.0. The Arrhenius activation energy (Ea), activation enthalpies (ΔH^¢), and activation entropy (ΔS^‡) for compounds ZL25, ZL33, ZL37 and ZL54 were determined from the slopes of the Arrhenius and intercepts of Eyring plots.
The rates of hydrolysis of compounds ZL01-ZL04, ZL07, ZL25, ZL33, ZL37, ZL38, ZL43 and ZL54 in a 5% MeOD-d4/95% D2O were monitored by ^1H NMR at different temperature from 278 to 298 K by the observation of new peaks over time due to aqua adduct formation. Five percent MeOD was used to improve solubility, and acidic conditions (D2O, pH* 3) were used to prevent the deprotonation of the aqua complex as a secondary reaction. […] The percentage of aqua peak formation for ZL25, ZL33, ZL37 and ZL54 was plotted against time and was fitted to pseudofirst order kinetics (FIG. 3), and their halflife times were calculated (Table 1). The Arrhenius activation energy (Ea), activation enthalpy (ΔH^¢), and activation entropy (ΔS^‡) of compound ZL25, ZL33, ZL37 and ZL54 are listed in Table 4. The large negative ΔS^‡value for compound ZL54 is notable. The extent of hydrolysis at equilibrium is medium for all compounds, ranged from 30% to 60%.

Compound: Cc1c(C)c(-c2ccccc2)[c-](C)c1C.F[P-](F)(F)(F)(F)F.[Cl-].[Ir+3].c1cnc2c(c1)ccc1cccnc12 (stereo not drawn) [ZL33, [(η^5-C5Me4C6H5)Ir(phen)Cl]PF6]
- k (hydrolysis) (278 K): 0.033 min⁻¹
- k (hydrolysis) (283 K): 0.0693 min⁻¹
- k (hydrolysis) (288 K): 0.1264 min⁻¹
- Ea (Arrhenius activation energy of hydrolysis) (from Arrhenius plot): 20.5 kcal/mol
- ΔH^‡ (activation enthalpy of hydrolysis) (from Eyring plot): 20.06 kcal/mol
- ΔS^‡ (activation entropy of hydrolysis) (from Eyring plot): 29.3 J K^−1mol^−1
